These molecules were tested against Integrin alpha-4 (Homo sapiens) (UniProt P13612) (assay: Displacement of [125I]VCAMIg from VLA4 expressed in Jurkat cells at 100 uM).
Format: cell-based

Row | inhibition | SMILES
1 | 30% | O=C(O)c1[nH]c(C2CCCN2S(=O)(=O)c2cc(Cl)cc(Cl)c2)nc1Cc1ccc2ccccc2c1 (stereo not given)
2 | 19% | O=C(O)c1nc(C2CCCN2S(=O)(=O)c2cc(Cl)cc(Cl)c2)sc1-c1ccc2ccccc2c1 (stereo not given)
3 | 8% | O=C(O)c1[nH]c(C2CCCN2S(=O)(=O)c2cc(Cl)cc(Cl)c2)nc1-c1ccc2ccccc2c1 (stereo not given)
4 | 45% | O=C(O)c1[nH]c(CN(C2CCCCC2)S(=O)(=O)c2cc(Cl)cc(Cl)c2)nc1-c1ccc(-c2ccccc2)cc1

These molecules were tested against T1, Integrin alpha-4 (Homo sapiens, UniProt P13612) (assay: Displacement of [125I]VCAMIg from VLA4 expressed in Jurkat cells).
T1 sequence (P13612 whole entry): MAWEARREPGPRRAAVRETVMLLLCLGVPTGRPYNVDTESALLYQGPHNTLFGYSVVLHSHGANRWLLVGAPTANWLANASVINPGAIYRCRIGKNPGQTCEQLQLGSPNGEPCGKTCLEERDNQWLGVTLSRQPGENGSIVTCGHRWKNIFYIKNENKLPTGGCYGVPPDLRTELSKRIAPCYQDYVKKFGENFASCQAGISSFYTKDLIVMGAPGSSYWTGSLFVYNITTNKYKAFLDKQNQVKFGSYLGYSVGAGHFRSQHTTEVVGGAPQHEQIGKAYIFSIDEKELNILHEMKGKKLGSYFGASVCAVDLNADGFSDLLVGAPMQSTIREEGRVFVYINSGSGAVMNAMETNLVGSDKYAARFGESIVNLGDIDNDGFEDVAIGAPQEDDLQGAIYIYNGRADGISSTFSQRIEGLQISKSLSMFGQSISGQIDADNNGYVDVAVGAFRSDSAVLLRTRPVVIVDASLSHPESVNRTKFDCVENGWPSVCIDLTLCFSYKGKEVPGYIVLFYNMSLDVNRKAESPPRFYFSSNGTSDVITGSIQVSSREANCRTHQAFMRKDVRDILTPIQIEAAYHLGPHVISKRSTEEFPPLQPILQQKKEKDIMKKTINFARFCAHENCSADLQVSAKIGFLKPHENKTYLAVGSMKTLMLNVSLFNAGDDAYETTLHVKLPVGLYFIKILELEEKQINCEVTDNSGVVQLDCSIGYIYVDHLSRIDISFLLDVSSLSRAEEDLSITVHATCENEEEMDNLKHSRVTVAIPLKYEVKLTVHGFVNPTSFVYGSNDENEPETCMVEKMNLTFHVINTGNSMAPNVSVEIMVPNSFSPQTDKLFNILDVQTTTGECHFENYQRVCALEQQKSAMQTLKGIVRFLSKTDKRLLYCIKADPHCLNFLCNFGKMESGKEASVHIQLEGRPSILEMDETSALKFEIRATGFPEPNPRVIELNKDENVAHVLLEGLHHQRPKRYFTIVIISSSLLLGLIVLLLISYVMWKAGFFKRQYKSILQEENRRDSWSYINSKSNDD
Format: cell-based

Row | SMILES | IC50
5 | O=C(O)c1[nH]c(CN(C2CCCCC2)S(=O)(=O)c2cc(Cl)cc(Cl)c2)nc1Cc1ccc2ccccc2c1 | 0.285 µM
6 | O=C(O)c1nc(CN(C2CCCCC2)S(=O)(=O)c2cc(Cl)cc(Cl)c2)[nH]c1Cc1ccc(-c2ccccc2)cc1 | 0.237 µM
7 | CC(C)C(c1nc(Cc2ccc3ccccc3c2)c(C(=O)O)[nH]1)N(C)S(=O)(=O)c1cc(Cl)cc(Cl)c1 (stereo not given) | 2.54 µM

The next lines start with the values.

Row | IC50 | SMILES
8 | 0.00064 µM | COc1ccccc1-c1ccc(C[C@H](NC(=O)[C@@H]2CCCN2S(=O)(=O)c2cc(Cl)cc(Cl)c2)C(=O)O)cc1
9 | 2.1 µM | O=C(O)C(Cc1ccccc1)N1C[C@@H]2CCN(S(=O)(=O)c3cc(Cl)cc(Cl)c3)[C@@H]2C1=O (stereo not given in full)
10 | 0.0014 µM | O=C(O)[C@H](Cc1ccccc1)NC(=O)[C@@H]1CCCN1S(=O)(=O)c1cc(Cl)cc(Cl)c1

— ChEMBL document CHEMBL1141621, “Constraining the amide bond in N-sulfonylated dipeptide VLA-4 antagonists” (Bioorg Med Chem Lett, 2008)
